This is an account of results in ChEMBL document CHEMBL1764959, “Design, synthesis, and structure-activity relationship studies of thiophene-3-carboxamide derivatives as dual inhibitors of the c-Jun N-terminal kinase” (Bioorg Med Chem, 2011).

Molecules are shown by their SMILES.

In the assay the target is Mitogen-activated protein kinase 8 (Homo sapiens, UniProt P45983). Nature of the assay: Inhibition of JNK1 by TR-FRET assay.
Sequence of Mitogen-activated protein kinase 8 (P45983 whole entry): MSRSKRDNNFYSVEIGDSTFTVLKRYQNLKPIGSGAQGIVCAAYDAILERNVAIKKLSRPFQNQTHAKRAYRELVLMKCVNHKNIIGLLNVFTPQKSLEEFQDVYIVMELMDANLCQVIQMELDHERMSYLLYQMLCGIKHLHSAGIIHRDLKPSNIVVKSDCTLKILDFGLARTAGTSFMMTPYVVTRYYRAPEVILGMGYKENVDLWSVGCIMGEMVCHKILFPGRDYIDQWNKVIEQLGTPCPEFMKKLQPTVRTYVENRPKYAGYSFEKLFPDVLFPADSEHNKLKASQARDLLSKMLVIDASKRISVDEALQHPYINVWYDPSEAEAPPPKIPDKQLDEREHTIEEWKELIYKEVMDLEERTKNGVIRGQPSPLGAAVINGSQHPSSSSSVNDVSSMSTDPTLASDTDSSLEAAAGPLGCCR
One may read the IC50 as the concentration needed to halve the response being measured. Low values mean inhibition by little substance, high ones a need for much substance. In turn, `NC(=O)c1ccccc1NC(=O)Cc1cccc2ccccc12` yielded an IC50 of more than 100 µM. The compound `NC(=O)c1ccsc1NC(=O)Cc1c[nH]c2ccccc12` showed an IC50 of 9.4 µM. The same measure for `NC(=O)c1ccsc1NC(=O)Cc1ccc(F)cc1F`: 9.7 µM. In turn, `COc1cc(CC(=O)Nc2sccc2C(N)=O)cc(OC)c1` registered an IC50 of 3.1 µM. For `NC(=O)c1ccc(NC(=O)Cc2cccc3ccccc23)s1`, the IC50 was more than 100 µM.

In the case of `NC(=O)c1ccsc1NC(=O)Cc1c(F)cccc1Cl`, half-maximal inhibition (IC50) required 12.5 µM. The same measure for `COc1ccc2c(CC(=O)Nc3sccc3C(N)=O)c(Br)ccc2c1`: more than 25 µM; for `NC(=O)c1ccsc1NC(=O)c1ccccc1`: 5.9 µM. The same measure for `NC(=O)c1ccsc1NC(=O)CN1CCN(Cc2ccco2)CC1`: 7.6 µM; for `NC(=O)c1ccsc1NC(=O)Cc1coc2ccccc12`: more than 25 µM. For `NC(=O)c1ccsc1NC(=O)Cc1ccc2c(c1)CCC2`, the IC50 came to 2.5 µM.

Consider `COc1cccc(CC(=O)Nc2sccc2C(N)=O)c1`, for which the IC50 is 2.6 µM. Then `NC(=O)c1ccsc1NC(=O)CN1CCN(S(=O)(=O)c2ccccc2C(F)(F)F)CC1`, with 75.1 µM. The same measure for `NC(=O)c1ccsc1NC(=O)Cc1ccc(C(F)(F)F)cc1`: 6.4 µM. Then `NC(=O)c1ccsc1NC(=O)Cc1cc(F)cc2c1OCOC2`, with 4.9 µM; and `NC(=O)c1ccsc1NC(=O)Cc1cc(Cl)c2c(c1)OCCCO2`, with 1.9 µM; and `NC(=O)c1ccsc1NC(=O)CCc1ccccc1`, with more than 100 µM. `CC(C)Cc1ccc(CC(=O)Nc2sccc2C(N)=O)cc1` had an IC50 of more than 25 µM. For the compound `NC(=O)c1ccsc1NC(=O)Cc1c(F)cccc1F`, inhibition was half-maximal at 7.4 µM (IC50).

Take `NC(=O)c1ccsc1NC(=O)Cc1ccccc1Br`: inhibition was half-maximal at 2.9 µM (IC50).

With `NC(=O)c1ccsc1NC(=O)Cc1ccc(F)c(F)c1`, the IC50 was 10.2 µM. Then `NC(=O)c1ccsc1NC(=O)Cc1cccc(C(F)(F)F)c1`, with 7.6 µM; and `Cc1cnc2sc(CC(=O)Nc3sccc3C(N)=O)cn12`, with 2.5 µM; and `Cc1cc(C(N)=O)c(NC(=O)Cc2cccc3ccccc23)s1`, with more than 25 µM.

Compound `COc1ccc(CC(=O)Nc2sccc2C(N)=O)cc1` yielded an IC50 of 5.7 µM. For `CCOc1ccc(CC(=O)Nc2sccc2C(N)=O)cc1`, the IC50 amounted to 1.9 µM.

`NC(=O)c1ccsc1NC(=O)Cc1cc(F)ccc1F` had an IC50 of 5.8 µM.

In turn, `NC(=O)c1ccsc1NC(=O)Cc1ccc(OC(F)(F)F)cc1` came in with a half-maximal inhibitory concentration (IC50) of 5.8 µM. Then `NC(=O)c1ccsc1NC(=O)Cc1nc(-c2cccs2)cs1`, with more than 25 µM. The same measure for `Cc1csc(NC(=O)Cc2cccc3ccccc23)c1C(N)=O`: more than 25 µM; for `NC(=O)c1ccsc1NC(=O)Cc1csc2nc(-c3cccs3)cn12`: 2.5 µM; for `O=C(Cc1cccc2ccccc12)Nc1sccc1C(=O)O`: more than 100 µM. Compound `COc1ccccc1CC(=O)Nc1sccc1C(N)=O` displayed an IC50 of 11.9 µM. Then `NC(=O)c1ccsc1NC(=O)Cc1cccc([N+](=O)[O-])c1`, with more than 25 µM; and `N#Cc1cccc(CC(=O)Nc2sccc2C(N)=O)c1`, with 20.9 µM. `CC(C)c1ccc(CC(=O)Nc2sccc2C(N)=O)cc1`: the IC50 is more than 25 µM. The same measure for `NC(=O)c1ccsc1NC(=O)Cc1cccc(F)c1`: 9.4 µM; for `COc1ccc2cc(Br)ccc2c1CC(=O)Nc1sccc1C(N)=O`: more than 25 µM. For the compound `NC(=O)c1ccsc1NC(=O)Cc1cccc(Cl)c1`, half-maximal inhibition (IC50) was put at 2.6 µM.

The compound `NC(=O)c1ccsc1NC(=O)Cc1ccc(Br)cc1` returned an IC50 of more than 25 µM. Then `Cc1sc(NC(=O)Cc2cccc3ccccc23)c(C(N)=O)c1C`, with 26 µM; and `NC(=O)c1ccsc1NC(=O)Cc1ccccc1F`, with 8.3 µM; and `NC(=O)c1ccsc1NC(=O)Cc1ccc(F)cc1`, with 5.1 µM.

Take `NC(=O)c1ccsc1NC(=O)CN1CCOCC1`: the IC50 is more than 50 µM.

With `NC(=O)c1ccsc1NC(=O)Cc1ccc([N+](=O)[O-])cc1`, half-maximal inhibition (IC50) was put at 2.9 µM.
